# Several values for one entry are separate records, joined by “and”; a condition that tells them apart may be missing. Equal values may be shown once. Read-outs that look alike come from different tables or passages of the source.
# What was measured:
# [1] = system: JAK1/2; assay: Cell IC50 JAK1/2 hPBMC IFNγ/pSTAT1; assay type: cell-based, human
# [2] = system: JAK3 (pSTAT5, lymph); assay: Pre-clinical human whole blood IL-2/pSTAT5 (20 min), lymphocytes; assay type: cell-based; settings: for EC50: Homo sapiens, Lymphocyte
# [3] = Phase 1 MAD study: safety and tolerability; assay type: in vivo, human; settings: for AE of Special Interest (events) / AEs (events) / ≥Grade 2 (events): 14 days
# Excerpt: Primary Endpoints—Number and percent of adverse events (AEs) and serious adverse events (SAEs); mean change from baseline in laboratory values, vital signs, and electrocardiograms (ECGs).
# (§1) Overall Design—This was a randomized, Investigator and participant-blind. Sponsor-unblinded, placebo-controlled study designed to evaluate the safety, tolerability, PK, and PD of Compound I in healthy participants. The study consisted of multiple cohorts assessing ascending doses of Compound I.
# (§2) Approximately 60 participants were enrolled into 5 cohorts. At each dose level/cohort, a total of 10 participants were randomized to receive 2 weeks of oral doses of Compound I (n=8) or placebo (n=2). In Cohort 3, 20 participants were randomized to receive multiple oral doses of Compound I QD (n=8), Compound I TID (n=8), placebo QD (n=2), or placebo TID (n=2).
# (§3) The study started with a planned dose of 5 mg twice daily (BID). Escalation to the next higher cohort was dependent on safety and PK data from all participants in the previous cohorts and was based on data from at least 6 participants up to at least 48 hours after the last dose. In no instance did the dose escalation steps exceed 3-fold the prior dose level.
# [4] = system: IL15 stimulated IFNγ protein; assay: Pre-clinical human whole blood IL-15/IFNγ (5 hr); assay type: cell-based
# [5] = Phase 1 multiple ascending dose (MAD) study: pharmacokinetics; assay type: in vivo, human; settings: for AUC(0-inf): read-out: Geometric Mean AUCINF_obs
# Excerpt: Secondary Endpoints—Compound I plasma concentrations and PK parameters: AUC0-tau, AUC0-inf, Ctrough, Cmax, tmax, Kel, t1/2, CLss/F, Vss/F, Rae.
# as §1, §2, §3
smiles,measurement,setting,value
"C=CC(=O)N1C[C@H](Nc2ncnc3[nH]cc([C@H]4CC4(F)F)c23)CC[C@@H]1C [Compound I, 1-((2S,5R)-5-((5-((R)-2,2-difluorocyclopropyl)-7H-pyrrolo[2,3-d]pyrimidin-4-yl)amino)-2-methylpiperidin-1-yl)prop-2-en-1-one]","Cell IC50, JAK1/2 hPBMC IFNγ/pSTAT1",[1],Inactive
same,"Potency relative to Ritlecitinib, IL-2/pSTAT5 (20 min)",[2],(1.2 fold*)
same,EC50,"[2]; 20 min, read-out: Human Whole Blood EC50, IL-2/pSTAT5 (20 min)",0.136 µM
same,EC50,[2]; read-out: Pre-clinical EC50,0.136 ± 0.0512 µM
same,"Deaths, serious AEs, discontinuations due to AEs",[3]; MAD,"no deaths, serious AEs, or discontinuations due to AEs"
same,Safety and tolerability conclusion,[3]; MAD,safe and well tolerated
same,Notable events: single episode of transient diarrhea,[3]; MAD 5 mg BID,2 subjects
same,Notable events: single dermatomal zoster rash 1 week after dosing ended,[3]; MAD 40 mg BID,1 subject
same,AE of Special Interest (events),[3]; MAD cohort 5 mg BID,3
same,AEs (events),[3]; MAD cohort 5 mg BID,9
same,≥Grade 2 (events),[3]; MAD cohort 5 mg BID,1
same,AE of Special Interest (events),[3]; MAD cohort 10 mg TID,0
same,AEs (events),[3]; MAD cohort 10 mg TID,3
same,≥Grade 2 (events),[3]; MAD cohort 10 mg TID,0
same,AE of Special Interest (events),[3]; MAD cohort 15 mg BID,0
same,AEs (events),[3]; MAD cohort 15 mg BID,0
same,≥Grade 2 (events),[3]; MAD cohort 15 mg BID,0
same,AE of Special Interest (events),[3]; MAD cohort 25 mg BID,1
same,AEs (events),[3]; MAD cohort 25 mg BID,4
same,≥Grade 2 (events),[3]; MAD cohort 25 mg BID,0
same,AE of Special Interest (events),[3]; MAD cohort 30 mg QD,0
same,AEs (events),[3]; MAD cohort 30 mg QD,3
same,≥Grade 2 (events),[3]; MAD cohort 30 mg QD,0
same,AE of Special Interest (events),[3]; MAD cohort 40 mg BID,1
same,AEs (events),[3]; MAD cohort 40 mg BID,4
same,≥Grade 2 (events),[3]; MAD cohort 40 mg BID,1
same,Safety and tolerability,"[3]; MAD, up to 2 weeks administration in HV",safe and tolerable
same,"Potency relative to Ritlecitinib, IL-15/IFNγ (5 hr)",[4],(6.5 fold*)
same,IC50,[4]; Homo sapiens,0.0029 µg/mL and 8 nM
same,EC50,"[4]; Homo sapiens, 5 h, read-out: Human Whole Blood EC50, IL-15/IFNγ (5 hr)",0.008 µM
same,Geometric Mean Accumulation Ratio - AUCtau (Day 15/Day 1),"[5]; Cohort 1, 5 mg BID",1.2
same,Geometric Mean Accumulation Ratio - Cmax (Day 15/Day 1),"[5]; Cohort 1, 5 mg BID",1.2
same,Geometric Mean HL_Lambda_z,"[5]; Cohort 1, 5 mg BID, Day 1",1.51 h
same,Geometric Mean HL_Lambda_z,"[5]; Cohort 1, 5 mg BID, Day 7",1.50 h
same,Geometric Mean HL_Lambda_z,"[5]; Cohort 1, 5 mg BID, Day 15",1.65 h
same,Geometric Mean Accumulation Ratio - AUCtau (Day 15/Day 1),"[5]; Cohort 2, 15 mg BID",1.6
same,Geometric Mean Accumulation Ratio - Cmax (Day 15/Day 1),"[5]; Cohort 2, 15 mg BID",1.4
same,Geometric Mean HL_Lambda_z,"[5]; Cohort 2, 15 mg BID, Day 1",1.53 h
same,Geometric Mean HL_Lambda_z,"[5]; Cohort 2, 15 mg BID, Day 7",1.66 h
same,Geometric Mean HL_Lambda_z,"[5]; Cohort 2, 15 mg BID, Day 15",1.65 h
same,Geometric Mean Accumulation Ratio - AUCtau (Day 15/Day 1),"[5]; Cohort 3a, 30 mg QD",1.3
same,Geometric Mean Accumulation Ratio - Cmax (Day 15/Day 1),"[5]; Cohort 3a, 30 mg QD",1.1
same,Geometric Mean HL_Lambda_z,"[5]; Cohort 3a, 30 mg QD, Day 1",1.90 h
same,Geometric Mean HL_Lambda_z,"[5]; Cohort 3a, 30 mg QD, Day 7",1.87 h
same,Geometric Mean HL_Lambda_z,"[5]; Cohort 3a, 30 mg QD, Day 15",1.93 h
same,Geometric Mean Accumulation Ratio - AUCtau (Day 15/Day 1),"[5]; Cohort 4, 25 mg BID",1.4
same,Geometric Mean Accumulation Ratio - Cmax (Day 15/Day 1),"[5]; Cohort 4, 25 mg BID",1.3
same,Geometric Mean HL_Lambda_z,"[5]; Cohort 4, 25 mg BID, Day 1",1.70 h
same,Geometric Mean HL_Lambda_z,"[5]; Cohort 4, 25 mg BID, Day 7",1.91 h
same,Geometric Mean HL_Lambda_z,"[5]; Cohort 4, 25 mg BID, Day 15",1.97 h
same,Geometric Mean Accumulation Ratio - AUCtau (Day 15/Day 1),"[5]; Cohort 5, 40 mg BID",1.7
same,Geometric Mean Accumulation Ratio - Cmax (Day 15/Day 1),"[5]; Cohort 5, 40 mg BID",1.4
same,Geometric Mean HL_Lambda_z,"[5]; Cohort 5, 40 mg BID, Day 1",1.78 h
same,Geometric Mean HL_Lambda_z,"[5]; Cohort 5, 40 mg BID, Day 7",1.85 h
same,Geometric Mean HL_Lambda_z,"[5]; Cohort 5, 40 mg BID, Day 15",2.34 h
same,Dose proportionality of geometric mean exposure (Cmax and AUC),[5]; MAD,increases slightly greater than dose-proportional
same,Plasma concentration dose dependence,[5]; MAD,increased in a dose-dependent manner
same,Time to peak plasma concentration after dosing,[5]; MAD,≤ 2 h
same,AUC(0-inf),"[5]; human, plasma, oral, 5 mg, Cohort 1, 5 mg BID, Day 1",0.027 µg·h/mL
same,AUC(0-t),"[5]; human, plasma, oral, 5 mg, Cohort 1, 5 mg BID, Day 1, read-out: Geometric Mean AUC_0-12",0.026 µg·h/mL
same,Cmax,"[5]; human, plasma, oral, 5 mg, Cohort 1, 5 mg BID, Day 1, read-out: Geometric Mean Cmax",0.0108 µg/mL
same,Tmax,"[5]; human, plasma, oral, 5 mg, Cohort 1, 5 mg BID, Day 1, read-out: Geometric Mean Tmax",36 min
same,AUC(0-inf),"[5]; human, plasma, oral, 5 mg, Cohort 1, 5 mg BID, Day 7",0.032 µg·h/mL

# Source: US20260191863A1, “PYRROLOPYRIMIDINE COMPOSITIONS FOR TREATMENT OF ITK MEDIATED CONDITIONS” (ACLARIS THERAPEUTICS, INC., priority 2022, published 2026)
